This note sets out measurements from patent US4782072A, “Thiadiazole derivative” (Reckitt & Colman Products Limited, priority 1986, dated 1988).

As usually defined, the ED50 is the dose at which the effect has come halfway, by size or by number of responders.

The nature of data set [1]: electroshock test (MES), rat. In kind it is in vivo. The settings on record: read-out: ED50 (limits) RAT MES. How it is done:
(§1) The pharmacological activity of the compound of the invention has been determined according to the following procedures. Its anticonvulsant activity was determined in the metrazol antagonism test in both mice and rats (MMS) (Soaje-Echaque E; Lim RKS, J Pharmac Exp Ther 1962, 138, 224; Desmedt LKC; Niemegeers CJE; Lewi PJ; Janssen PAJ, Arzneim-Forsch (Drug Res), 1976, 26, 1592) and the electroshock test (MES) (Perry JK; Tower DB; Woodbury DM; Walter RD, "Experimental Models of Epilepsy", editor Purpura DP; Raven Press: New York, 1972, 434).

Data set [2] is described as follows: metrazol antagonism test (MMS), mouse. The format is in vivo. The settings on record: read-out: ED50 (limits) MOUSE MMS. How it is done:
as §1

Data set [3] in a line: metrazol antagonism test (MMS), rat. In kind it is in vivo. The settings on record: read-out: ED50 (limits) RAT MMS. The protocol:
as §1

Data set [4] can be described thus: anticonvulsant tests (MES and MMS), rat and mouse, summary. In kind it is in vivo. The settings on record: for anticonvulsant activity: electrically and chemically induced seizures. How it is done: as §1
The nature of another data set: in vivo. The settings on record: for TD50 ip at time of peak effect / TD50 po at 1 hour: rotarod; for TD50 ip at time of peak effect: at time of peak anticonvulsant effect; for TD50 po at 1 hour: dose at which 50% of trained animals fall off the rotarod. The protocol: An assessment of the neurotoxicity of the compound was carried out in mice using the rotarod test (Collier, HOJ; Fieller, EC; Hall, RA, Analyst, 1949, 74, 592).
^a Dose at which 50% of trained animals fall off the rotarod.
^b Protective index is calculated by dividing the TD50 (ip at
time of peak anticonvulsant effect) by the ED50 under the same

A short description of data set [5]: electroshock test (MES), mouse. The format is in vivo. The protocol:
as §1

Where [6] appears, read: mouse, in vivo, ip, protective index (PI).
The mark [7] stands for this setting: ip, mouse, MES, i.p., at time of peak effect, read-out: ED50 (limits) MES at time of peak effect.
Setting [8] is: mouse, MES, oral, t=1 hour, read-out: ED50 (limits) MOUSE MES.

For `NCc1nnc(-c2ccccc2-c2ccccc2)s1` [Example, 2-Aminomethyl-5-(2-biphenylyl)-1,3,4-thiadiazole], the ED50 was 10 mg/kg in data set [1] (rat, MES, oral, t=1 hour); 20 mg/kg in data set [2] (mouse, MMS, oral, t=1 hour); 9 mg/kg in data set [3] (rat, MMS, oral, t=1 hour); 7 mg/kg in data set [5] (setting [7]); 22 mg/kg in data set [5] (setting [8]). Moreover, the rate of absorption result in data set [4] (inferred from time of peak effect, ip and oral, in words) is given as “very rapid rate of absorption”. Besides, the “time of peak effect by both methods of administration” value in data set [4] (intraperitoneal and oral routes, after dosing) was “ten and twenty”. For the same compound, the anticonvulsant activity result is “potent anticonvulsant activity” in data set [4] (rat and mouse, in words, listed as compound of Formula 1); “potent anticonvulsant, blocking both electrically and chemically induced seizures” in data set [4] (rat and mouse, in words, listed as the compound). Also, the “effectiveness by intraperitoneal and oral routes” value in data set [4] (rat and mouse, in words) is “effective by both the intraperitoneal and oral routes”. The “potency relative to established anticonvulsant drugs” value in data set [4] (rat and mouse, in words) is “comparable with established anticonvulsant drugs”. In the data set “in vivo” (setting [6]), the selectivity ratio was determined as 6.5. Further, the “TD50 ip at time of peak effect” value in “in vivo” (ip) is given as 45(23-68) mg/kg. Also, the “TD50 po at 1 hour” value in “in vivo” was 318(230-471) mg/kg. In addition, the “Time of peak effect” value in data set [5] (mouse, MES, i.p.) worked out at 10 min.

With `NC(=O)N1c2ccccc2C=Cc2ccccc21` [carbamazepine], the ED50 in data set [1] (rat, MES, oral, t=1 hour) worked out at 4 mg/kg; in data set [2] (mouse, MMS, oral, t=1 hour) it was 11 mg/kg; in data set [3] (rat, MMS, oral, t=1 hour), 3 mg/kg; in data set [5] (setting [7]), 6 mg/kg; in data set [5] (setting [8]) it was 20 mg/kg. Also, the “protective index (PI)” value in the data set “in vivo” (in vivo, ip) was found to be 11.1. The selectivity ratio in the data set “in vivo” (setting [6]) stood at 11. Moreover, in the data set “in vivo” (ip), the “TD50 ip at time of peak effect” value was 67(29-108) mg/kg. For the same compound, in “in vivo”, the “TD50 po at 1 hour” value is 166(104-282) mg/kg. In addition, the “Time of peak effect” value in data set [5] (mouse, MES, i.p.) came to 20 min.

Take `CCC1(c2ccccc2)C(=O)NC(=O)NC1=O` [phenobarbital]: the ED50 is 9 mg/kg in data set [1] (Rattus norvegicus, po, 1 h); 4 mg/kg in data set [2] (Mus musculus, po, 1 h); 4 mg/kg in data set [3] (Rattus norvegicus, po, 1 h); 18 mg/kg in data set [5] (Mus musculus, ip, read-out: ED50 (limits) MES at time of peak effect); 12 mg/kg in data set [5] (Mus musculus, po, 1 h, read-out: ED50 (limits) MOUSE MES). In the data set “in vivo” (ip), the “TD50 ip at time of peak effect” value is 86(54-140) mg/kg. For the same compound, in the data set “in vivo”, the “TD50 po at 1 hour” value is 68(52-92) mg/kg. The “Time of peak effect” value in data set [5] (mouse, MES, i.p.) stood at 30 min.

Consider `O=C1NC(=O)C(c2ccccc2)(c2ccccc2)N1` [phenytoin], for which the ED50 in data set [1] (rat, MES, oral, t=1 hour) stood at 14 mg/kg; in data set [2] (mouse, MMS, oral, t=1 hour) it was 8 mg/kg; in data set [3] (rat, MMS, oral, t=1 hour), 12 mg/kg; in data set [5] (setting [7]), 8 mg/kg; in data set [5] (setting [8]), 8 mg/kg. The selectivity ratio in the data set “in vivo” (in vivo, ip) came to 7. In addition, the “TD50 ip at time of peak effect” value in “in vivo” (ip) is on record as 56(27-74) mg/kg. Besides, in “in vivo”, the “TD50 po at 1 hour” value is reported as 216(154-239) mg/kg. In addition, in data set [5] (mouse, MES, i.p.), the “Time of peak effect” value stood at 60 min.
